Assays:
Acetylcholinesterase = Acetylcholinesterase (Homo sapiens, UniProt P22303); format: functional
[1] = biological target: Sodium-dependent dopamine transporter (Homo sapiens, UniProt Q01959)
D(1A) dopamine receptor = D(1A) dopamine receptor (Homo sapiens, UniProt P21728)
Mu-type opioid receptor = Mu-type opioid receptor (Homo sapiens, UniProt P35372)
D(3) dopamine receptor = D(3) dopamine receptor (Homo sapiens, UniProt P35462)
[2] = biological target: 5-hydroxytryptamine receptor 2B (Homo sapiens, UniProt P41595); format: functional, cell-based
Histamine H3 receptor = Histamine H3 receptor (Homo sapiens, UniProt Q9Y5N1)
[3] = biological target: Sodium-dependent serotonin transporter (Homo sapiens, UniProt P31645)
[4] = biological target: Voltage-gated inwardly rectifying potassium channel KCNH2 (Homo sapiens, UniProt Q12809); format: functional; details: read-out: AC50
Progesterone receptor = biological target: T1, Progesterone receptor (Homo sapiens, UniProt P06401)
T1 sequence (P06401 whole entry): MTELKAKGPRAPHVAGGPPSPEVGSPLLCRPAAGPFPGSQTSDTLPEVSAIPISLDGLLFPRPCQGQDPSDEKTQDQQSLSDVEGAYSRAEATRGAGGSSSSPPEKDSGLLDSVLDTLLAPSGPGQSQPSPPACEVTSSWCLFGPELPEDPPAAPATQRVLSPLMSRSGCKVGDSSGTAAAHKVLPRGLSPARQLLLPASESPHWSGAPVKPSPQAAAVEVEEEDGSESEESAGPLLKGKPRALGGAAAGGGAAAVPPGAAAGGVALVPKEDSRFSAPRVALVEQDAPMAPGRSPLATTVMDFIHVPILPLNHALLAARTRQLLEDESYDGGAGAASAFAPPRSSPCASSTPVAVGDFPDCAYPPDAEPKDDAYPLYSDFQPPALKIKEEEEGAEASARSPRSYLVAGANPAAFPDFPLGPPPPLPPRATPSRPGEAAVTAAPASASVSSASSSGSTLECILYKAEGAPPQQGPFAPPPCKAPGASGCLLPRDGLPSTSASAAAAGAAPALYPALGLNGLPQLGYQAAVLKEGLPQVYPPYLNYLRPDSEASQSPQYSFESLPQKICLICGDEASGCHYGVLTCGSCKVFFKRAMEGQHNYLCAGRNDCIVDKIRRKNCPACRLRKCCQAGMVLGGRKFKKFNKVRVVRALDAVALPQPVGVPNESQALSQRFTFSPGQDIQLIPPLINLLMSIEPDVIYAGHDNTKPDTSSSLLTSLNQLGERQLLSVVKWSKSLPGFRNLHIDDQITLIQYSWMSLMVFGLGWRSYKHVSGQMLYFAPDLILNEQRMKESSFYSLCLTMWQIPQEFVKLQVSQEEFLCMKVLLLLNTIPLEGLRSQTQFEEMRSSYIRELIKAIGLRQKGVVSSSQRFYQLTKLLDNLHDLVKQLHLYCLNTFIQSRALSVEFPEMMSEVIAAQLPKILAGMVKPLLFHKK

Prothrombin = Prothrombin (Homo sapiens, UniProt P00734); format: functional
Thromboxane A2 receptor [5] = biological target: T2, Thromboxane A2 receptor (Homo sapiens, UniProt P21731); format: functional, cell-based
T2 sequence (P21731 whole entry): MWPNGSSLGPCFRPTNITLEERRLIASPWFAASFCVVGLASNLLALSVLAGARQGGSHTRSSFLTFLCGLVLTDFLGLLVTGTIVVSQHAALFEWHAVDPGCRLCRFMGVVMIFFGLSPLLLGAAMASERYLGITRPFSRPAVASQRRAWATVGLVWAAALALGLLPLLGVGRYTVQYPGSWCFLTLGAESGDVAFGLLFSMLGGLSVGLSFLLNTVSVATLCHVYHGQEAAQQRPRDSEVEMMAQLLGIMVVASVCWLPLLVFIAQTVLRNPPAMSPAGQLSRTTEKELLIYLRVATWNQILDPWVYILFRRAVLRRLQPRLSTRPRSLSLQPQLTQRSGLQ

Thromboxane A2 receptor [6] = biological target: T2, Thromboxane A2 receptor; format: functional, cell-based; remark: listed apart in the source
[7] = biological target: T3, Prostaglandin G/H synthase 1 (Homo sapiens, UniProt P23219); format: functional
[8] = biological target: T3, Prostaglandin G/H synthase 1; format: functional; remark: listed apart in the source
[9] = biological target: T4, Alpha-1A adrenergic receptor (Homo sapiens, UniProt P35348); format: functional, cell-based
T4 sequence (P35348 whole entry): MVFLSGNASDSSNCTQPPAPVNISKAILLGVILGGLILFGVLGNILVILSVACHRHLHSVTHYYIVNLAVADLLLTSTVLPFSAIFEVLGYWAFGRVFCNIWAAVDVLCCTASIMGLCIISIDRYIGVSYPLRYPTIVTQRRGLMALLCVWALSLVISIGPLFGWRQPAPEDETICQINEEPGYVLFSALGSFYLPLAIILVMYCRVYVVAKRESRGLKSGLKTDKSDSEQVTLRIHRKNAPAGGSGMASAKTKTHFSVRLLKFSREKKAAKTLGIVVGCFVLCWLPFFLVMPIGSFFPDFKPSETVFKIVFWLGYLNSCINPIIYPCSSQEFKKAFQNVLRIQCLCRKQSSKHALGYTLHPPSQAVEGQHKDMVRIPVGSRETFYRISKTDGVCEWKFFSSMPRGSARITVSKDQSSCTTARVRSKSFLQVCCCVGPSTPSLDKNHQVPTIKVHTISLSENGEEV

Adenosine receptor A3 = biological target: T5, Adenosine receptor A3 (Homo sapiens, UniProt P0DMS8)
T5 sequence (P0DMS8 whole entry): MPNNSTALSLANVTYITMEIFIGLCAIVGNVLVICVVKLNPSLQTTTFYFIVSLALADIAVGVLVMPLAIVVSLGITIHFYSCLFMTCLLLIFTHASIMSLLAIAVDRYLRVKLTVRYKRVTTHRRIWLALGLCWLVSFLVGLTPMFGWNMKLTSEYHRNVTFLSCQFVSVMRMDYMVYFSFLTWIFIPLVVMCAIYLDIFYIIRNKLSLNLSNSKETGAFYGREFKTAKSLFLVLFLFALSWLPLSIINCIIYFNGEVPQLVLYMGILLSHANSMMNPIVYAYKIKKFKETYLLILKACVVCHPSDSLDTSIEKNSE
Note: assay procedure not described here.

Chain of D(1A) dopamine receptor (P21728 whole entry): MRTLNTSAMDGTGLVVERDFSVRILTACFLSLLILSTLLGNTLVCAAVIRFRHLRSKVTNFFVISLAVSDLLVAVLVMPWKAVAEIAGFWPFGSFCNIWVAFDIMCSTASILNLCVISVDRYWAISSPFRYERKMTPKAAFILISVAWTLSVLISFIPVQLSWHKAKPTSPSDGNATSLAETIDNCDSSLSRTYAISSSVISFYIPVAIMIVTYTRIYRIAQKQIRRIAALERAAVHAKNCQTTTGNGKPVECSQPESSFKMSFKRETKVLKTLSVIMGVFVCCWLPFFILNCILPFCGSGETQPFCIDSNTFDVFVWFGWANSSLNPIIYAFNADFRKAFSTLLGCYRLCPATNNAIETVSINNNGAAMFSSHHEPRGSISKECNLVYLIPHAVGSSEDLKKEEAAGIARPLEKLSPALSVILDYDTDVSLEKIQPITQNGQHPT
Chain of Sodium-dependent dopamine transporter (Q01959 whole entry): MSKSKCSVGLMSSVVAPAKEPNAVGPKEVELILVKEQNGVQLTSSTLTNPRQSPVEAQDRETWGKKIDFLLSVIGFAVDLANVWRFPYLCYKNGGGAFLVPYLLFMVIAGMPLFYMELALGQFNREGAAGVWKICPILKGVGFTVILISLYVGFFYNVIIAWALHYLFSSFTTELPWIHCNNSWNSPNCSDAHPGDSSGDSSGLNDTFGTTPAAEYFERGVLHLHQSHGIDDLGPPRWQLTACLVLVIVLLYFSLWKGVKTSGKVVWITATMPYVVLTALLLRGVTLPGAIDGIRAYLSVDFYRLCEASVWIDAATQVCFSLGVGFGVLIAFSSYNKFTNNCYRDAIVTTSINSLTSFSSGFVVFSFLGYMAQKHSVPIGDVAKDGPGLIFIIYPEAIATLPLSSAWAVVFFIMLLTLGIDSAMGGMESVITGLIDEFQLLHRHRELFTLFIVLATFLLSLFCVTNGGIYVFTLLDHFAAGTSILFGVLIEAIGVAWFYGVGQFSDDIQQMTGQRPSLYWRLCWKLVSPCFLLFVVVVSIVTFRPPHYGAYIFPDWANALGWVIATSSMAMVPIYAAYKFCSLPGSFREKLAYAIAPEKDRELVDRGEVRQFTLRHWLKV
T3 sequence (P23219 whole entry): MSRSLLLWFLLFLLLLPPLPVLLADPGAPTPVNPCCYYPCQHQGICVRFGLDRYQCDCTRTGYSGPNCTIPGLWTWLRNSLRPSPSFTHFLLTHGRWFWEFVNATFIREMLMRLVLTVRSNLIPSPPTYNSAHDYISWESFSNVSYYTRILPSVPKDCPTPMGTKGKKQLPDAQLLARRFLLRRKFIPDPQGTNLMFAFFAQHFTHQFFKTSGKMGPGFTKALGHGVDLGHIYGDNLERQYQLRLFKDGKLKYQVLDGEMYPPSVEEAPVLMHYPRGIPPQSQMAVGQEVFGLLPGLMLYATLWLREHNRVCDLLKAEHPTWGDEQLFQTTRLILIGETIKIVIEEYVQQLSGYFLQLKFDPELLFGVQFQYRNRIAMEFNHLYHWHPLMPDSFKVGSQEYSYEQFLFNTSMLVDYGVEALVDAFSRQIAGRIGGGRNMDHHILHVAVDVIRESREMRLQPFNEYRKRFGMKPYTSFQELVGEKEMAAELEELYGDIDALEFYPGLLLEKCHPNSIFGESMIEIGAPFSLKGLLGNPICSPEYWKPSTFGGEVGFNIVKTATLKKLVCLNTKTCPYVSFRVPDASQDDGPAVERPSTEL
Chain of D(3) dopamine receptor (P35462 whole entry): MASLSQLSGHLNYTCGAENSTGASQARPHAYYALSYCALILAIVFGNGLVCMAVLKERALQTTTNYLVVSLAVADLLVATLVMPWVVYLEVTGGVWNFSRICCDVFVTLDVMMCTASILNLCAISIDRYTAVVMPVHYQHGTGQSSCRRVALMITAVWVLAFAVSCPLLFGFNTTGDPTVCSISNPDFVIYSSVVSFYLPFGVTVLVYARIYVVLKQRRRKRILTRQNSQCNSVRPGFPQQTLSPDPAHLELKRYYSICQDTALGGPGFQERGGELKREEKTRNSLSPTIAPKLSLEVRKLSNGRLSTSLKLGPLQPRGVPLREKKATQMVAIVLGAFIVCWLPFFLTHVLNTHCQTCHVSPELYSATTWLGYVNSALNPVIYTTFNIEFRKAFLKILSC
Chain of Histamine H3 receptor (Q9Y5N1 whole entry): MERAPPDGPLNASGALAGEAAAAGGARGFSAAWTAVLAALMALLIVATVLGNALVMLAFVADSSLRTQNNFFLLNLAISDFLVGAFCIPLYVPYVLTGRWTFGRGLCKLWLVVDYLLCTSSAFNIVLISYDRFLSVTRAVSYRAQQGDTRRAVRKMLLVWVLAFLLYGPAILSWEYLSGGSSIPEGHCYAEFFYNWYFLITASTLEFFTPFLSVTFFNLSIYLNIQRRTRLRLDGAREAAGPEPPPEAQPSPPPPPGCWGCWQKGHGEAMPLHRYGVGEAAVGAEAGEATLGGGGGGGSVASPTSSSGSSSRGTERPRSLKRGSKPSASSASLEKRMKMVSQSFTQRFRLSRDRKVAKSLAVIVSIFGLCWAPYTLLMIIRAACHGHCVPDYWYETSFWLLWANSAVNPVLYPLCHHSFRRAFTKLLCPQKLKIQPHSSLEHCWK
Chain of Sodium-dependent serotonin transporter (P31645 whole entry): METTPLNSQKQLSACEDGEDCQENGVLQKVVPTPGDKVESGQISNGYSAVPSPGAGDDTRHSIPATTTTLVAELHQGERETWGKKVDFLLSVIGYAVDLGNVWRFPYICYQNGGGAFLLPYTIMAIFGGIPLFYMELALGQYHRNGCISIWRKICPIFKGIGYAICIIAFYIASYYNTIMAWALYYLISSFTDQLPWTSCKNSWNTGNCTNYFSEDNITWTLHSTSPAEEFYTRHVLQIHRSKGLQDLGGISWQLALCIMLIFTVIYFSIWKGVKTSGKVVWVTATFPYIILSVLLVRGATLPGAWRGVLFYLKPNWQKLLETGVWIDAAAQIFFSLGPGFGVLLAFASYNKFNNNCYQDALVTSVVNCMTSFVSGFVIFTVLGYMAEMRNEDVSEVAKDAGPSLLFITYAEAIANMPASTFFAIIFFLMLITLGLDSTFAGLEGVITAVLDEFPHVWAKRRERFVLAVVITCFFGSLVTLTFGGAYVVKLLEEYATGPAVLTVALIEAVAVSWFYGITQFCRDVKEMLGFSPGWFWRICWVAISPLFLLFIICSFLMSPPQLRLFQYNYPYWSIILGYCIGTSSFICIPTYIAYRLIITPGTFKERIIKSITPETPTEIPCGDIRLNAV
Chain of Voltage-gated inwardly rectifying potassium channel KCNH2 (Q12809 whole entry): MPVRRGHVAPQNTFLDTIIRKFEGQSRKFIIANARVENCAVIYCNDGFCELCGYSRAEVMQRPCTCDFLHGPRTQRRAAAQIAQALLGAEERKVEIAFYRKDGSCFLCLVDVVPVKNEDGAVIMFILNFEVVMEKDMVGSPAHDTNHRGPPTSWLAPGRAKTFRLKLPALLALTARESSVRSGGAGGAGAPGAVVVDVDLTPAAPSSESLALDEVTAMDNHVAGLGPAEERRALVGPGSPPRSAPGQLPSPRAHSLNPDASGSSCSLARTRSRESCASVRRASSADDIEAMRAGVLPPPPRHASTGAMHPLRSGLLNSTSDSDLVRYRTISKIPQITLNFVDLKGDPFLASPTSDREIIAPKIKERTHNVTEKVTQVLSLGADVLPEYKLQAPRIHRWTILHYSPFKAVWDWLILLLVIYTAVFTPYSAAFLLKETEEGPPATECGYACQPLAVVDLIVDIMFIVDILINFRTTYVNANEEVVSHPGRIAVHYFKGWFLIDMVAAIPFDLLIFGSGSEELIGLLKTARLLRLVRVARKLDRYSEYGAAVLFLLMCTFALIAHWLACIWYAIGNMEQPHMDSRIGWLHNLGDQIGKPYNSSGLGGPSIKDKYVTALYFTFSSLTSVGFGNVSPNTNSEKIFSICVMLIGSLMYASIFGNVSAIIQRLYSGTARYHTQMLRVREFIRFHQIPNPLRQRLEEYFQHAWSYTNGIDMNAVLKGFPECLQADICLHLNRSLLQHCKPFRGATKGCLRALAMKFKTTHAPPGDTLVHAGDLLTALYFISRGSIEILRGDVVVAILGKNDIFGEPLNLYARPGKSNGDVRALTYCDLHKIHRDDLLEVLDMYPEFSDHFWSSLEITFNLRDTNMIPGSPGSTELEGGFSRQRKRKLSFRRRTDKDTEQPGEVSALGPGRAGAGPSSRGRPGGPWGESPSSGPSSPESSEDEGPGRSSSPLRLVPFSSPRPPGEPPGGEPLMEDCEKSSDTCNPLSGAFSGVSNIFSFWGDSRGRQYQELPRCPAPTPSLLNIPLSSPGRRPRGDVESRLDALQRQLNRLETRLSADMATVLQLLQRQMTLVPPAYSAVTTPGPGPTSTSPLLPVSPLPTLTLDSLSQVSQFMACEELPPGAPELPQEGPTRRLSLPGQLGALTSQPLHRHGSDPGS
Chain of Mu-type opioid receptor (P35372 whole entry): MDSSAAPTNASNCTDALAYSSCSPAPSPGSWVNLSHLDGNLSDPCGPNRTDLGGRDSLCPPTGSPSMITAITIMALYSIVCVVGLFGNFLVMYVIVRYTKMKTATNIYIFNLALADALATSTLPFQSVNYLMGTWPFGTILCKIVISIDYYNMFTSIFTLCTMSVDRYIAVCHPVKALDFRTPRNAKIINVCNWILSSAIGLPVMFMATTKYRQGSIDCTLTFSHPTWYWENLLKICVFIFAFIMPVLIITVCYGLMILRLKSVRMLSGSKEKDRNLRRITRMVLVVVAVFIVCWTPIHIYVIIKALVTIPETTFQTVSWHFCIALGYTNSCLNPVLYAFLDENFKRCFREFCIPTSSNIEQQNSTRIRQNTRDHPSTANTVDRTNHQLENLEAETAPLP

SMILES	AC50 (Acetylcholinesterase) [µM]	AC50 [1] [µM]	AC50 (D(1A) dopamine receptor) [µM]	AC50 (Mu-type opioid receptor) [µM]	AC50 (D(3) dopamine receptor) [µM]	AC50 [2] [µM]	AC50 (Histamine H3 receptor) [µM]	AC50 [3] [µM]	AC50 [4] [µM]	AC50 (Progesterone receptor) [µM]	AC50 (Prothrombin) [µM]	AC50 (Thromboxane A2 receptor [5]) [µM]	AC50 (Thromboxane A2 receptor [6]) [µM]	AC50 [7] [µM]	AC50 [8] [µM]	AC50 [9] [µM]	AC50 (Adenosine receptor A3) [µM]
CN1C(=O)N(C)C2C1N(C)C(=O)N2C (configuration not stated) [MEBICAR]	> 30	> 30	> 30	> 30	> 30	> 30	> 30	> 30	> 30	> 30	> 30	> 30	> 30	> 30	> 30	–	–
Nc1ccc(/N=N/c2ccccc2)c(N)n1 [PHENAZOPYRIDINE]	> 3	4.71	9.35	> 30	> 30	> 30	> 30	> 30	14	> 30	> 30	> 30	28.4	24.9	> 30	–	–
NS(=O)(=O)c1cc2c(cc1Cl)NC(CC1CCCC1)NS2(=O)=O (configuration not stated) [CYCLOPENTHIAZIDE]	> 30	> 30	> 30	> 30	> 30	> 30	> 30	> 30	> 30	> 30	> 30	> 30	> 30	> 30	> 30	–	–
CO/N=C(\C(=O)N[C@@H]1C(=O)N2C(C(=O)OCOC(=O)C(C)(C)C)=C(C)CS[C@H]12)c1csc(N)n1	> 30	> 30	> 30	> 30	> 30	> 30	> 30	> 30	> 30	> 30	> 30	> 30	> 30	> 30	23.2	–	–
CC(C)=CCC1C(=O)N(c2ccccc2)N(c2ccccc2)C1=O [FEPRAZONE]	> 30	> 30	> 30	> 30	> 30	> 30	> 30	> 30	–	> 30	> 30	> 30	> 30	> 30	0.26	–	–
N/N=c1/cc2c(n[nH]1)CCN(C(=O)c1ccccc1)C2 [ENDRALAZINE]	> 30	> 30	> 30	> 30	> 30	> 30	> 30	> 30	> 30	> 30	> 30	> 30	> 30	22.3	> 30	–	–
C[C@@H]1C[C@H]2[C@@H]3CCC4=CC(=O)C=C[C@]4(C)[C@@]3(F)[C@@H](O)C[C@]2(C)[C@H]1C(=O)CO [DESOXIMETASONE]	> 30	> 30	> 30	> 30	> 30	> 30	> 30	–	> 30	0.0331	> 30	> 30	> 30	> 30	> 30	> 30	> 30
CN(Cc1cc(Br)cc(Br)c1N)C1CCCCC1 [BROMHEXINE]	> 30	12.3	> 30	> 30	> 30	> 30	> 30	–	20	> 30	> 30	> 30	> 30	> 30	> 30	> 30	27.9
COCC1=C(C(=O)OC(C)OC(=O)OC(C)C)N2C(=O)[C@@H](NC(=O)/C(=N\OC)c3csc(N)n3)[C@H]2SC1 (some centres not stated) [CEFPODOXIME PROXETIL]	> 30	> 30	> 30	> 30	> 30	> 30	> 30	> 30	> 30	> 30	> 30	> 30	> 30	> 30	18.1	–	–
CC1=NN(c2ccccc2)C(=O)C1 [EDARAVONE]	> 30	> 30	> 30	> 30	10.9	> 30	> 30	–	> 30	> 30	> 30	> 30	> 30	12.5	> 30	> 30	> 30
O=C1CCC(N2C(=O)c3ccccc3C2=O)C(=O)N1 (configuration not stated) [THALIDOMIDE]	> 30	> 30	> 30	0.202	> 30	> 30	> 30	–	> 30	> 30	> 30	> 30	> 30	> 30	> 30	> 30	> 30
O=C(Cn1ccnc1[N+](=O)[O-])NCc1ccccc1 [BENZNIDAZOLE]	> 30	> 30	> 30	> 30	> 30	> 30	> 30	> 30	–	> 30	> 30	> 30	> 30	> 30	> 30	–	–

Source: ChEMBL document CHEMBL5291721, “A preclinical secondary pharmacology resource illuminates target-adverse drug reaction associations of marketed drugs” (Nat Commun, 2023)
